According to a melting point compilation (Tetko et al.; mined from patent text by program, amines drawn as free bases though some values may be those of a salt):

| Compound | melting point |
| --- | --- |
| OC[C@H]1O[C@@H](n2cnc3c(NC4CCOC4)ncnc32)[C@@H](O)[C@H]1O (stereo partly specified) | 128 to 130 °C |
| COc1cc(C=CC(COc2ccccc2)=NO)ccc1O | 155 to 158 °C |
| CC1(C)Cc2c(c(N3CCOCC3)nc3sc4c(N(CCN5CCOCC5)Cc5cccnc5)ncnc4c23)CO1 | 150 °C |
| C1=CNc2c(ccc3ncccc23)C=N1 | 169 to 171 °C |
| COc1ccc(C(=O)NC[C@@H]2CN3C(=O)C[C@H]3O2)cc1 (racemic) | 143 °C |
| Cc1nn2c(CCCOc3ccc(NCCC(=O)O)cc3)n[nH]c2c1Cl | 151 to 153 °C |
| O=c1cc(-c2ccccc2)c2ccc(COc3cc(F)cc(-c4ccccc4)c3)cc2o1 | 129 to 131 °C |
| COc1ccccc1C(=O)c1cccc(C#N)c1 | 180 °C |
| Cc1onc(-c2ccc(F)cc2)c1-c1ccc(S(N)(=O)=O)c(F)c1 | 180 to 182 °C |
| Cc1oc(C(N)=O)c(C)c1-c1nc2ccc(Oc3ccccc3)cc2[nH]1 | 248 to 251 °C |
| Cc1c(N2C[C@@H](NC(=O)C(F)(F)F)C(C)(C)C2)c(F)c(N)c2c(=O)c(C(=O)O)cn(C3CC3)c12 | 254 to 255 °C |
| CCCCCCCCCCCCCCCCCCOc1cc(N)cc(C(N)=O)c1 | 139 to 143 °C |
| CC=CCn1c(C)c(C)c2cnnc(OCc3ccc(F)cc3)c21 | 93 to 103 °C |
| C#CCNC1CCc2ccccc21 (stereo unspecified) | 39 to 41 °C |
| Cc1cccc(C)c1CNc1cc(S(=O)(=O)N(C)C)cc2c1nc(C)n2C | 237 to 238 °C |
| O=C(O)CCC(=O)c1ccc(NC(=O)c2cccc(F)c2)cc1 | 239 to 241 °C |
| COC(C)(CCCCCC(C)(C)O)c1cccc(C=Cc2cc(O)cc(O)c2)c1 (stereo unspecified) | 65 to 75 °C |
| CCC1(C)Cc2c(C)c(Cl)c(C=O)c(C)c2C1 (stereo unspecified) | 89 to 90 °C |
| CNC1=Nc2ccc(Cl)cc2C(c2ccccc2Cl)=NC1 | 216 to 219 °C |
| COc1ccc2c(c1)C1(C)CC(=O)N(C)C1(O)CC2 (stereo unspecified) | 182 to 186 °C |
| O=C1Nc2ccccc2SC1CCCCl (stereo unspecified) | 98 to 99 °C |

| Compound | melting point |
| --- | --- |
| CCOC(=O)c1cn(CC)c2c(F)c(F)c(F)c(F)c2c1=O | 217 to 220 °C |
| CCC(Oc1c(C)cccc1C)C(=O)OC1CC(O)C=C2C=CC(C)C(CCC3CC(O)CC(=O)O3)C21 (mixture of isomers) | 125 to 127 °C |
| NCCCC(F)(F)C(F)(F)C(F)(F)C(F)(F)C(F)(F)C(F)(F)C(F)(F)C(F)(F)C(F)(F)C(F)(F)F | 53 to 55 °C |
| O=c1c(CCCc2nccs2)cc2cccnc2n1-c1cccc([N+](=O)[O-])c1 | 198 to 199 °C |
| CC(=O)Nc1ccc(N=C=S)cc1O | 68 to 70 °C |
| NCC1CCN(c2c(F)cc3c(=O)c(C(=O)O)cn(C4CC4)c3c2F)C1 (stereo unspecified) | 232 to 235 °C |
| COCOc1ccc(-c2ncc3ncc(Cl)cc3n2)cc1 | > 268 °C |
| CCN(CC)CCCNc1ncc2cc(-c3c(Cl)cccc3Cl)c(=N)n(C)c2n1 | 154 to 156 °C |
| CNC(=S)NCCCCc1nccs1 | 130 to 132 °C |
| CC1CCNC(=C[N+](=O)[O-])N1c1ccc(Cl)nc1 (stereo unspecified) | 184 °C |
| Nc1ccn2c(=O)c(C(=O)O)ccc2c1 | > 250 °C |
| CCn1c(=O)n(O)c(=O)c2cc(F)c(N3CCCC3)cc21 | 170 to 171 °C |
| CCOC(=O)c1ccc2cc(N=[N+]=[N-])ccn2c1=O | 145 to 150 °C |
| COc1c(N2CCC(n3cncn3)C2)c(F)cc2c(=O)c(C(=O)O)cn(C3CC3)c12 (stereo unspecified) | 221 to 222 °C |
| Cc1c(-c2ccncc2)[nH]c(-c2ccncc2)c1S(C)(=O)=O | 232 to 234 °C |
| CC(=O)OC1C(N2CCCC2)CC2C3CCC4CC(O)C(N5CCOCC5)CC4(C)C3CCC21C (stereo unspecified) | 149 to 153 °C |
| O[C@@H]1CN(CCNc2ncccn2)CC[C@H]1NCc1ccccc1 (relative stereo) | 127 °C |
| O=S1(=O)CCN2C=CC=C(c3ccc(OCC4CCOCC4)cc3)C2=N1 | 268 to 269 °C |
| NC(=O)NC1CCC(O)c2ccccc21 (stereo unspecified) | 170 to 176 °C |
| COc1cnc(CSc2nc3cc(OCC(F)(F)F)ccc3[nH]2)cc1OC | 55 to 57 °C |
| COc1ccc(C(=O)Nc2c(Cl)cncc2Cl)cc1OC1COCC1O (stereo unspecified) | 183 to 185 °C |

| Compound | melting point |
| --- | --- |
| CC(C)(C)C(NC(=O)c1cccc(Cl)c1)Nc1c(Nc2cnccn2)c(=O)c1=O (stereo unspecified) | 245 to 247 °C |
| CCOC(=O)CC(=O)c1ccc([N+](=O)[O-])c(OC)c1 | 94 to 95 °C |
| CS(=O)(=O)c1ccc(-c2cc(C(=O)CO[N+](=O)[O-])nn2-c2ccccn2)cc1 | 82 to 84 °C |
| CCOC1Nc2c(Br)cc(Br)cc2S(=O)(=O)N1 (stereo unspecified) | 96 to 98 °C |
| CCOC(C#CC(=O)c1cc(OC)c(OC)c(OC)c1)OCC | 52 to 54 °C |
| Cc1cc(Oc2ccc(C#CC(C)N(O)C(N)=O)o2)ccc1F (stereo unspecified) | 131 to 132 °C |
| CN1Cc2c(-c3noc(CCl)n3)ncn2-c2ccccc2C1=O | 208 to 209 °C |
| CCCCCCCCCCC#Cc1csc(C=O)n1 | 25.5 to 26 °C |
| CC(=O)NC1=NN(c2ccc(C(=O)C(F)(F)F)cc2)CC1 | 243 to 244 °C |
| CCCCCCCCN1C=C(C)C(=c2c(C)cc(=CC=C3C=C(C(C)(C)C)C(=O)C(C(C)(C)C)=C3)cc2C)C(C)=C1 | > 280 °C |
| Cc1cc(Cl)ccc1N=CN(C)SN(C1CCCCC1)C1CCCCC1 | 110 to 111 °C |
| CCc1c(C)[nH]c(=O)c(N)c1Cc1cc(C)cc(C)c1 | 204 to 205 °C |
| Cc1nn(C)c(NCC(C)(C)C)c1NCc1ccncc1 | 88 to 90 °C |
| CCc1c(C(=O)C(N)=O)c2c(N)cccc2n1Cc1ccccc1 | 140 to 144 °C |
| COc1nc2c(cc1NC(=S)N1CCN(c3cc(C)cc(C)c3)CC1)CCC2 | 159 to 161 °C |
| COc1cc(Nc2c(C#N)cnc3cc(Sc4ccccc4)c(OC)cc23)c(Cl)cc1Cl | 220 to 222 °C |
| CCOC(CC)=C1SC(=S)N(c2ccccc2)C1=O | 178 to 181 °C |
| CC1NC(=O)NN=C1c1ccccc1 (stereo unspecified) | 214 °C |
| Cc1ccc(S(=O)(=O)OC2CON(C(=O)OC(C)(C)C)C2)cc1 (stereo unspecified) | 63 to 65 °C |
| CC(=O)SCC(C(=O)Nc1cccc(O)c1)C(F)(F)F (stereo unspecified) | 148 to 149 °C |

Next, values leading:

| melting point | Compound |
| --- | --- |
| 214 to 217 °C | CC(C)c1ccc(N(Cc2ccc(N(C)C)cc2)C(=O)C2CCCc3ccc(O)cc32)cc1 (stereo unspecified) |
| 98 to 110 °C | COc1ccc2[nH]c(C(=O)Nc3cc(NC(=O)OCc4ccccc4)c4ccccc4c3CCOC(C)=O)cc2c1 |
| 208 to 210 °C | O=c1nc(-c2cccc(S(=O)Cc3ccccc3)n2)sc2ccccc12 (stereo unspecified) |
| 240 to 245 °C | Cc1ccc2c(-c3nnn[nH]3)cn(Cc3ccc4oc(-c5nc(C(C)(C)C)cs5)cc4c3)c2c1 |
| 123 to 125 °C | Cc1ccc(-c2cc(Cl)c3cc(Cl)ccc3n2)cc1 |
| 214 °C | N#Cc1cc(NC(=O)c2cc3ccccc3o2)ccc1N1CCC(CCO)CC1 |
| 208 to 210 °C | Cc1cc2c(cc1Oc1ccc(C(=O)O)cc1)C(C)(C)CCC2(C)C |
| 119 to 121 °C | CCOCc1cc2cc(Cl)ccc2oc1=Nc1ccc(Br)cc1 |
| 104 to 106 °C | COc1cc(Nc2c(C#N)cnc3cc(-c4cccc(CN5CCN(C)CC5)c4)ccc23)c(Cl)cc1Cl |
| 218 to 221 °C | Cc1nc(-n2ccc3c(O)cccc3c2=O)sc1C(=O)NCc1ccccc1 |
| 310 °C | COc1ccc(OC)c(C(Nc2ccc(C(=N)N)cc2)C(=O)O)c1 (racemic) |
| 167 °C | Cc1cc(Cc2cc(C)cc(C(C)(C)C)c2O)c(O)c(-n2nc3ccccc3n2)c1 |
| 132 to 134 °C | CN(O)C(=O)C(=Cc1ccc2ccccc2c1)c1ccc(F)cc1 |
| 146 to 148 °C | CCOC(Cc1ccc(NC/C=C/c2ccc(OS(C)(=O)=O)cc2)cc1)C(=O)O (stereo unspecified) |
| 158 to 159 °C | CCCOCCOc1ccc(-c2ccc3c(c2)C=C(C(=O)Nc2ccc(CN(C)C4CCOCC4)cc2)CCS3(=O)=O)c(C)c1C |
| 202 to 204 °C | COC(=O)C(C#N)(Cc1ccc(-c2cccc(C(F)(F)F)c2)cc1)C(c1ccccc1OC)c1cccc2ccccc12 (stereo unspecified) |
| 115 to 118 °C | Cn1cc(CN2C(=O)C3(COc4cc5c(cc43)OCO5)c3ccccc32)ccc1=O (stereo unspecified) |

| melting point | Compound |
| --- | --- |
| 173 to 175 °C | CCOC(=O)C1=C(C)NC(=S)N(C(=O)c2ccccc2)C1c1cccc([N+](=O)[O-])c1 (stereo unspecified) |
| 132 to 133 °C | CC(=O)OC1CSC(Oc2cncc(-c3ccc(CO)cc3)c2)C(OC(C)=O)C1OC(C)=O (stereo unspecified) |
| 114 to 116 °C | CN(C1CC(C)(C)Oc2ccc(OCc3ccccc3)cc21)S(C)(=O)=O (stereo unspecified) |
| 176 to 177 °C | COc1ccc(-n2ncc(C(=O)N[C@H](C)[C@](O)(Cn3cncn3)c3ccc(F)cc3F)c2C)cc1 |
| 132 to 134 °C | O=C1c2ccccc2COc2ccc(CC=NO)cc21 |
| 247 to 248 °C | NC(=S)c1cc(F)c2ncc(C(=O)NCc3ccc(Cl)cc3)c(O)c2c1 |
| 123 to 125 °C | Cc1ccc(-c2ccccc2-c2n[nH]c(=O)o2)cc1 |
| 161 to 164 °C | Cn1c(COc2ccc(CC3SC(=O)NC3=O)cc2)nc2ccc(Oc3ccc(CCNC(=O)Nc4ccc(F)cc4F)cc3)cc21 (stereo unspecified) |
| 209 °C | O=C(Nc1cc2ncc(CN3CCCC3)cc2cc1Cl)c1ccc(-c2cc3ccccc3o2)cc1 |
| 64 °C | Cc1cc(C)cc(-c2cnn3c(-c4cccc(-c5nnn(CC6CCC6)n5)c4)ccnc23)c1 |
| 163 to 166 °C | Clc1ccccc1-c1ccc(-c2ccc(C3=CC=CNC3)cc2)n1CNc1ccccn1 |
| 73 °C | Cc1ccc(CC(CNC(=S)NC(C)c2ccc(NS(C)(=O)=O)c(F)c2)COC(=O)C(C)(C)C)cc1C (stereo unspecified) |
| 87 to 89 °C | O=C1N(Cc2ccc(OCc3ccccc3)cc2)c2ccccc2C12COc1cc3c(cc12)OCCO3 (stereo unspecified) |
| 85 °C | OCCc1ccc(OCc2ccccc2)cc1 |
| 144 to 146 °C | COc1cc(-c2ccccc2C)ccc1C(=O)N1Cc2ccc(C(=O)N(C)CC(O)C(O)C(O)C(O)CO)n2Cc2ccccc21 (stereo unspecified) |
| 273 to 274 °C | Oc1ccc2nc(-c3ccc(Cl)cc3)oc2c1 |
| 114 to 115 °C | CC1(C)OCC(CONC(=O)c2ccc(F)c(F)c2Nc2ccc(I)cc2F)O1 (stereo unspecified) |
